Experimental data published in patent publication US8598202B2, “Aryl-hydroxyethylamino-pyrimidines and triazines as modulators of fatty acid amide hydrolase” (Janssen Pharmaceutica NV, priority 2008, dated 2013).
pIC50: −log10 of the molar value. Counter-ions that a name gives are not always drawn.

Tests used:
[1] = target: T1, Rat FAAH-1 (Rattus norvegicus, UniProt P97612); assay: Assay Method 2: rat FAAH-1 assay, 3H-anandamide hydrolysis in homogenate of SK-N-MC cells transfected with rat FAAH
T1 sequence (P97612 1-579): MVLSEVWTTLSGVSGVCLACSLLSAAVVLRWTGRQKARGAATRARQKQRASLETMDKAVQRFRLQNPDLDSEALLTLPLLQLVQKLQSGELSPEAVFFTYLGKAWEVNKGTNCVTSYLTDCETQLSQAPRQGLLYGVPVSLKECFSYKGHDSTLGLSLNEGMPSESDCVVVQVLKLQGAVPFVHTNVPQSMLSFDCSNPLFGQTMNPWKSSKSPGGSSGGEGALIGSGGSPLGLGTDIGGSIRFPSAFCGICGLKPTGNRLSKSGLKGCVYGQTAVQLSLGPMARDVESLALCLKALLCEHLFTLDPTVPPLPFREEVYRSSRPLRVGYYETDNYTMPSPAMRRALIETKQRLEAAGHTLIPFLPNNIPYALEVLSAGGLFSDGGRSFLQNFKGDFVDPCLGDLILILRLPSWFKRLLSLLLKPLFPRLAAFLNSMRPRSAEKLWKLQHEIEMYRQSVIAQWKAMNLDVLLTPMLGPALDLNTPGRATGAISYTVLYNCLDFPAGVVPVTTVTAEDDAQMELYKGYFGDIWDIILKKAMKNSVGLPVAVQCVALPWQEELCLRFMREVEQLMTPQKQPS

[2] = target: T2, FAAH (Homo sapiens, UniProt O00519); assay: Assay Method 1: FAAH assay, 3H-anandamide hydrolysis in homogenate of T84 cells or SK-N-MC cells transfected with human FAAH
T2 sequence (O00519 1-579): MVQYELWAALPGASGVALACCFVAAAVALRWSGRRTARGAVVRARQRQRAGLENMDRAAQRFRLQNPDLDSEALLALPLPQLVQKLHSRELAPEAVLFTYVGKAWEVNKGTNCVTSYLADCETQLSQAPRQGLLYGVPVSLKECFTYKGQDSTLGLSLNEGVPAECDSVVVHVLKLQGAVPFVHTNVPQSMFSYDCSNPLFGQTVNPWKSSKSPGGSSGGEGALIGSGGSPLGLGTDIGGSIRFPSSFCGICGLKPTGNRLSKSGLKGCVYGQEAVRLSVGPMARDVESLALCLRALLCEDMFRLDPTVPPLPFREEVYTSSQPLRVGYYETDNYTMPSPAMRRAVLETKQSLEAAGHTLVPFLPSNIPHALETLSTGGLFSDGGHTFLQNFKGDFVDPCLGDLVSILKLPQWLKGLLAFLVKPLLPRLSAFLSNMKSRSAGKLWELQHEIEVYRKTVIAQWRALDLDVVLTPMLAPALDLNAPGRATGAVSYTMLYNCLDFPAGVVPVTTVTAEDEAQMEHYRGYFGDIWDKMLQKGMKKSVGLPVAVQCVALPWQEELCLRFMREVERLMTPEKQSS

pIC50 [1]	pIC50 [2]	SMILES
6.07	7.40	OC(CNc1cc(-c2ccc(C(F)(F)F)c(Cl)c2)ncn1)c1ccc(-c2ccccn2)cc1 (stereo not shown) [Example 193, 2-({6-[3-Chloro-4-(trifluoromethyl)phenyl]pyrimidin-4-yl}amino)-1-(4-Pyridin-2-ylphenyl)ethanol]
5.10	5.22	OC(CNc1cc(-c2ccc(C(F)(F)F)c(Cl)c2)ncn1)c1nccs1 (stereo not shown) [Example 169, 2-({6-[3-Chloro-4-(trifluoromethyl)phenyl]pyrimidin-4-yl}amino)-1-(1,3-thiazol-2-yl)ethanol]
7.92	8.15	OC(CNc1cc(-c2ccc(C(F)(F)F)c(Cl)c2)ncn1)c1ccc(F)cc1 (stereo not shown) [Example 190, 2-({6-[3-Chloro-4-(trifluoromethyl)phenyl]pyrimidin-4-yl}amino)-1-(4-fluorophenyl)ethanol]
5.30	5.82	C[C@@H](Nc1cc(-c2ccc(OC(F)(F)F)cc2)ncn1)[C@@H](O)c1ccccc1 [Example 150, (1S,2R)-1-Phenyl-2-[(6-{4-[(trifluoromethyl)oxy]phenyl}pyrimidin-4-yl)amino]propan-1-ol]
6.85	7.14	CS(=O)(=O)c1ccc(-c2cc(NC[C@H](O)c3ccccc3)ncn2)cc1 [Example 66, (1R)-2-({6-[4-(Methylsulfonyl)phenyl]pyrimidin-4-yl}amino)-1-phenylethanol]
7.22	7.74	Cc1ccc(-c2cc(NC[C@H](O)c3ccccc3)ncn2)cc1Cl [Example 39, (1R)-2-{[6-(3-Chloro-4-methylphenyl)pyrimidin-4-yl]amino}-1-phenylethanol trifluoroacetic acid salt]
7.22	8.05	O[C@@H](CNc1cc(-c2ccc(I)cc2)ncn1)c1ccccc1 [Example 142, (1R)-2-{[6-(4-Iodophenyl)pyrimidin-4-yl]amino}-1-phenylethanol]
< 5.00	< 5.00	CC(=O)Nc1cccc(-c2cc(NCC(O)c3ccccc3)ncn2)c1 (stereo not shown) [Example 242, N-{3-[6-(2-Hydroxy-2-phenyl-ethylamino)-pyrimidin-4-yl]-phenyl}-acetamide]
6.33	6.98	O[C@@H](CNc1cc(-c2cc(F)cc(F)c2)ncn1)c1ccccc1 [Example 58, (1R)-2-{[6-(3,5-Difluorophenyl)pyrimidin-4-yl]amino}-1-phenylethanol trifluoroacetic acid salt]
6.27	7.54	O=C(c1ccccc1)c1ccc(-c2cc(NC[C@H](O)c3ccccc3)ncn2)cc1 [Example 57, [4-(6-{[(2R)-2-Hydroxy-2-phenylethyl]amino}pyrimidin-4-yl)phenyl](phenyl)methanone trifluoroacetic acid salt]
7.70	7.70	N#Cc1cc(C(O)CNc2cc(-c3ccc(C(F)(F)F)c(Cl)c3)ncn2)ccc1F (stereo not shown) [Example 210]
6.96	5.46	CN(C)CCNc1nc(NC[C@H](O)c2ccccc2)cc(-c2ccc(C(F)(F)F)c(Cl)c2)n1 [Example 158, (1R)-2-[(6-[3-Chloro-4-(trifluoromethyl)phenyl]-2-{[2-(dimethylamino)ethyl]amino}pyrimidin-4-yl)amino]-1-phenylethanol trifluoroacetic acid salt]
5.85	7.37	O[C@@H](CNc1cc(-c2ccc3sccc3c2)ncn1)c1ccccc1 [Example 100, (1R)-2-{[6-(1-Benzothiophen-5-yl)pyrimidin-4-yl]amino}-1-phenylethanol trifluoroacetic acid salt]
7.96	8.70	O[C@@H](CNc1cc(-c2ccc(C(F)(F)F)c(F)c2)ncn1)c1ccc(F)cc1 [Example 173, (1R)-1-(4-Fluorophenyl)-2-({6-[3-fluoro-4-(trifluoromethyl)phenyl]pyrimidin-4-yl}amino)ethanol]
6.46	6.52	O[C@@H](CNc1ncnc(-c2ccc(C(F)(F)F)cc2)n1)c1ccccc1 [Example 103, (1R)-1-Phenyl-2-({4-[4-(trifluoromethyl)phenyl]-1,3,5-triazin-2-yl}amino)ethanol trifluoroacetic acid salt]
7.39	7.74	OC(CNc1cc(-c2ccc(OC(F)(F)F)cc2)ncn1)c1ccc(F)cc1 (stereo not shown) [Example 113, 1-(4-Fluorophenyl)-2-[(6-{4-[(trifluoromethyl)oxy]phenyl}pyrimidin-4-yl)amino]ethanol]

More lines, now with the values behind:

SMILES	pIC50 [1]	pIC50 [2]
OC(CNc1cc(-c2cccs2)ncn1)c1ccccc1 (stereo not shown) [Example 244, 1-Phenyl-2-(6-thiophen-2-yl-pyrimidin-4-ylamino)-ethanol]	< 5.00	< 5.00
OC(CNc1cc(-c2ccc(C(F)(F)F)c(Cl)c2)ncn1)c1ccc(-c2cccs2)cc1 (stereo not shown) [Example 194, 2-({6-[3-Chloro-4-(trifluoromethyl)phenyl]pyrimidin-4-yl}amino)-1-(4-thiophen-2-ylphenyl)ethanol]	6.68	7.96
O[C@@H](CNc1cc(-c2ccc3c(C(F)(F)C(F)(F)F)noc3c2)ncn1)c1ccc(F)cc1 [Example 176, (1R)-1-(4-fluorophenyl)-2-({6-[3-(pentafluoroethyl)-1,2-benzisoxazol-6-yl]pyrimidin-4-yl}amino)ethanol trifluoroacetic acid salt]	8.00	8.05
Cc1nc(NC[C@H](O)c2ccccc2)cc(-c2ccc(C(F)(F)F)c(Cl)c2)n1 [Example 73, (1R)-2-({6-[3-Chloro-4-(trifluoromethyl)phenyl]-2-methylpyrimidin-4-yl}amino)-1-phenylethanol]	7.40	7.70
OC(CNc1cc(-c2ccc(C(F)(F)F)c(Cl)c2)ncn1)c1ccc(Cl)c(F)c1 (stereo not shown) [Example 133, 1-(4-Chloro-3-fluoro-Phenyl)-2-[6-(3-chloro-4-trifluoromethyl-phenyl)-pyrimidin-4-ylamino]-ethanol trifluoroacetic acid salt]	7.82	7.52
O[C@@H](CNc1cc(-c2ccc3c(C(F)(F)C(F)(F)F)noc3c2)ncn1)c1ccccc1 [Example 188, (1R)-2-({6-[3-(pentafluoroethyl)-1,2-benzisoxazol-6-yl]pyrimidin-4-yl}amino)-1-phenylethanol trifluoroacetic acid salt]	7.46	7.62
OC(CNc1cc(-c2ccc(C(F)(F)F)c(Cl)c2)ncn1)c1ccc(C(F)(F)F)c(F)c1 (stereo not shown) [Example 197, 2-({6-[3-Chloro-4-(trifluoromethyl)phenyl]pyrimidin-4-yl}amino)-1-[3-fluoro-4-(trifluoromethyl)phenyl]ethanol]	7.47	7.00
OC(CNc1cc(-c2c(F)cccc2F)ncn1)c1ccccc1 (stereo not shown) [Example 237, 2-[6-(2,6-Difluoro-phenyl)-pyrimidin-4-ylamino]-1-phenyl-ethanol]	< 5.00	< 5.00
OC(CNc1cc(-c2ccc(C(F)(F)F)c(Cl)c2)ncn1)c1ccc(-n2ccnc2)cc1 (stereo not shown) [Example 200, 2-({6-[3-Chloro-4-(trifluoromethyl)phenyl]pyrimidin-4-yl}amino)-1-[4-(1H-imidazol-1-yl)phenyl]ethanol]	5.80	6.78
COc1ccccc1C(O)CNc1cc(-c2ccc(OC(F)(F)F)cc2)ncn1 (stereo not shown) [Example 118, 1-[2-(Methyloxy)phenyl]-2-[(6-{4-[(trifluoromethyl)oxy]phenyl}-pyrimidin-4-yl)amino]ethanol]	< 5.00	7.03
CN(C)c1ccc(-c2cc(NC[C@H](O)c3ccccc3)ncn2)cc1 [Example 65, (1R)-2-({6-[4-(Dimethylamino)phenyl]pyrimidin-4-yl}amino)-1-phenylethanol]	5.22	7.42
CSc1nc(NC[C@H](O)c2ccccc2)cc(-c2ccc(C(F)(F)F)c(Cl)c2)n1 [Example 60, (1R)-2-({6-[3-Chloro-4-(trifluoromethyl)phenyl]-2-(methylsulfanyl)pyrimidin-4-yl}amino)-1-phenylethanol trifluoroacetic acid salt]	7.55	8.22
CC(=O)c1ccc(-c2cc(NC[C@H](O)c3ccccc3)ncn2)cc1 [Example 17, 1-[4-(6-{[(2R)-2-Hydroxy-2-phenylethyl]amino}pyrimidin-4-yl)phenyl]ethanone]	8.00	7.92
